Measurements: a melting point compilation (Tetko et al.; mined from patent text by program, amines drawn as free bases though some values may be those of a salt)

Compound	melting point
COc1cccc(OC)c1-c1ccc(CC[C@H](NC(=O)c2c(Cl)cccc2Cl)C(=O)O)cc1	105 to 107 °C
N#CC(=CC(=O)c1ccccc1)C(=O)O	74 to 75 °C
CN(C)C1(c2ccc(F)cc2)CCC(N2CCC(c3c[nH]c4ccccc34)C2)CC1 (stereo not drawn)	248 to 250 °C
CC(C)(C)C(O)c1cncnc1 (stereo not drawn)	94 to 96 °C
NC(CCCCNC(=O)OCc1ccccc1)C(=O)NC1c2ccccc2-c2ccccc21 (stereo not drawn)	> 280 °C
CCCCOc1cc(C(=O)NCC#N)cc(Cl)n1	72 to 73 °C
COc1cc(NS(=O)(=O)c2ccc(N3CCNC3=O)cc2)cc(OC)c1	200 to 201 °C
CCOC(=O)CCc1cccc(-c2c(CC(=O)Nc3ccc(F)cc3C(F)(F)F)c(=O)oc3ccccc23)c1	163 to 164 °C
O=C1CC2(CCN(Cc3ccccc3)CC2)C(=O)N1OCc1ccccc1	146 to 152 °C
CCCc1nn(-c2ccc(C(F)(F)F)cn2)cc1CCCCO	80 to 81 °C
C=CCN1C2CCC1C1CCC2N1C(c1ccc(C(=O)N2CCCC2)cc1)c1cccc(OC)c1 (stereo not drawn)	46 to 48 °C
COc1ccc(CN2CCC(c3cc(-c4ccc(Cl)cc4)[nH]n3)CC2)cc1	166 to 168 °C
CCOP(=S)(OCC)Oc1c(C(=O)c2ccccc2Cl)c(C)nn1C	71 to 74 °C
O=C(C=C1c2ccccc2-c2ccccc21)NCCCCCC(=O)NO	174 to 176 °C
c1ccc(CSc2ncnc3c(N4CCOCC4)nc(N4CCNCC4)nc23)cc1	191 to 193 °C
CCCCCc1cnc(-c2ccc(-c3ccc(Br)cc3)cc2)nc1	137 °C
COc1ccc(C(=O)Nc2ccncc2)c2c3ccccc3n(Cc3ccc(F)cc3)c12	230 to 232 °C
COc1ccc(S(=O)(=O)NCc2ccco2)c2cc(C(C)=O)oc12	182 to 184 °C
CC(=O)N(C)c1cccc(-c2ccnc3c(C#N)cnn23)c1	195 to 197 °C
S=C(NCc1cccnc1)NC(=Nc1ccccc1)c1ccccc1	146 to 147 °C
CC(=O)NC=Cc1ccc(OCC(O)CNC(C)C)cc1 (stereo not drawn)	144 to 146 °C
N#CN1CCc2cccc(Cl)c2CC1	81 to 82 °C

Compound	melting point
Fc1cccc2[nH]c(-c3ccccc3)cc12	65 to 67 °C
CCCCC1COC(=S)N1 (stereo not drawn)	71 to 72 °C
O=C(Nc1ccccc1)Nc1ccnc(C(F)(F)F)c1	169 to 171 °C
CCCN1CCCC1Cc1cccc(NC(N)=O)c1 (stereo not drawn)	101 to 104 °C
CCOC(=O)c1cc(C(C)(C)C)n(-c2ccc(S(C)(=O)=O)cc2)n1	175 to 178 °C
CCNc1c(SC(F)(F)F)c(C)nn1-c1c(Cl)cc(C(F)(F)F)cc1Cl	53 to 54 °C
COc1c(NC2CCC(=Cc3ccccc3)CC2)ccnc1C (stereo not drawn)	120 °C
O=C(CCc1ccc(Cl)cc1)Cn1ccnc1	172 to 174 °C
CNC(=O)N1CCC(=NO)c2cc(Cl)ccc21	211 to 212 °C
CCCCc1nc(COC)c(C(=O)OC)n1Cc1ccc(-c2ccccc2C(=O)O)cc1	106 to 110 °C
Cc1n[nH]c(-c2ccncc2)c1-c1ccccc1	164 to 165 °C
CCN(CC)CCN1C(=O)c2cc(Cl)c(S(N)(=O)=O)cc2C1=O	152 to 154 °C
CS(=O)(=O)NC(=O)CCCCOc1cccc(O)c1C=O	136 to 138 °C
CCOC(=O)CC(=O)c1cc(F)c(O)nc1Nc1ccc(F)cc1F	161 to 162 °C
COc1nc(OC)c(SC)c(OC)n1	90.5 to 91 °C
CCC1(C)SC(NC)=NN1C(=O)C(C)(C)C (stereo not drawn)	132 to 136 °C
O=c1cc(-c2ccc(OCCOCCOc3ccc(-c4cc(=O)c5c(O)cc(O)cc5o4)cc3)cc2)oc2cc(O)cc(O)c12	268 to 270 °C
FC1(F)Oc2ccc(C=Cc3nc(CNc4ccc(CCCCn5ccnn5)cc4)co3)cc2O1	102 to 104 °C
Cc1c(Cc2cccnc2)c2ccccc2n1CCc1nnn[nH]1	173 °C
O=C(CO)Nc1nc(CN2CCC(c3c[nH]c4ccccc34)CC2)cs1	185 to 188 °C
FC(F)(F)c1cc(Cl)c2nc(CCl)cn2c1	75 to 77 °C
O=c1ccoc2cccc(OCCCN3CCN(c4ccccc4)CC3)c12	106 to 112 °C

Continued, values first:

melting point	Compound
77 to 79 °C	CC(C)(C)NC[C@H](Cc1ccc(OCc2ccccc2)cc1)NC(=O)OC(C)(C)C
175 to 178 °C	O=C(O)C1=Cc2ccc(Cl)cc2OC1C(F)(F)F (stereo not drawn)
186 to 188 °C	CCc1nn2c(N)cc(C)nc2c1S(=O)(=O)c1ccc(OC)cc1
75 to 77 °C	O=S(=O)(Nc1cccc(CCOCc2cccc(-c3ccccc3)n2)c1)C(F)(F)F
187 to 188 °C	COC(=O)[C@H]1[C@H](c2ccc3c(c2)OCO3)c2ccc(O)cc2[C@@H]1c1ccc(OC)cc1 (racemic)
265 to 267 °C	COC(=O)c1cc(-c2cccc(C(=O)O)c2)c2cc(Cc3ccc(F)cc3)cnc2c1O
79.3 °C	Fc1ccc(Cn2c(OC3CCNCC3)nc3cncnc32)cc1
134 to 135 °C	O=C(O)Cc1cccc(OCCCCc2cc(-c3ccc(C(F)(F)F)cc3)no2)c1
201 to 205 °C	CCCC(=O)Nc1cccc(C2(c3cc(C(=O)CC)n(CC)c3)N=C(N)N(C)C2=O)c1 (stereo not drawn)
206 to 208 °C	Cc1c(C(=O)Nc2ccc(Cl)c([N+](=O)[O-])c2)cnn1-c1ccc(C(F)(F)F)cc1
310 to 312 °C	Cn1c2c(c3ccccc3c1=O)C(=O)c1cc3c(cc1-2)OCO3
101 °C	CP(C)(=O)c1ccc(C(=O)O)cc1
110 to 112 °C	CC(O)Cn1cncn1 (stereo not drawn)
127 to 128 °C	COc1cc(-c2ccc(C=O)o2)ccc1Br
126 °C	CC1c2ccccc2NC(=O)N1CCCl (stereo not drawn)
114 to 116 °C	CCOC(=O)Cc1c(C)n(Cc2cccc(O)c2)c2ccc(OC)cc12
250 to 253 °C	CSc1ccc(/C=C/c2ccc(C(=O)O)cn2)cc1
247 to 248 °C	O=C(Nc1cc(-c2c(-c3ccc(F)cc3)nc3cccnn23)ccn1)c1ccc(Cl)nc1
175 to 177 °C	CC(C)(C)OC(=O)NN=C1C2CC3CC(C2)CC1C3
62 to 65 °C	O=C(Nc1ccc(C(F)(F)F)cc1)Nc1cccc(S(=O)(=O)NCCN2CCOCC2)c1

melting point	Compound
63 to 65 °C	CCCCCCCCCCCCCCCCCC(=O)NCCS
158 °C	COc1cc2c(cc1OC)CN(CCCOc1ccc(NC(=O)c3nc4cc(C)c(C)cc4nc3OC)cc1)CC2
152 to 154 °C	CCCN1CCN(c2cc3ccccc3c(=O)[nH]2)CC1CO (stereo not drawn)
118 to 119 °C	COc1ccc(C(=O)c2ccc(Oc3ccccc3)cc2)cc1
199 to 201 °C	Cc1oc(-c2ccccc2)nc1CCOc1ccc(C[C@H](NC(=O)C=Cc2ccc(F)cc2F)C(=O)O)cc1
72 to 73 °C	C[Si](C)(C)OC1(C#N)CCOc2ccc(Cl)cc21 (stereo not drawn)
158 °C	CC(C)(C)c1cccc(S(=O)(=O)n2c(Cc3ccc(C(=O)O)cc3)c(F)c3cc(C(F)(F)F)ccc32)c1
183 to 185 °C	COc1ccn(-c2nc(C)c(C(=O)NCc3ccc(F)c(F)c3)s2)c(=O)c1
91 to 93 °C	CC(=O)S[C@H]1CNC(=S)C1
158 °C	CN1CCC(C2(O)c3sccc3CCn3ncnc32)CC1 (stereo not drawn)
82 °C	CN1CCC(c2c(O)cc(O)c3c(=O)cc(Sc4ccccc4)oc23)C(O)C1 (stereo not drawn)
91 to 92 °C	CCON=C(CC)C1=C(O)CC(c2ccc(Sc3ncc(C(F)(F)F)cc3F)cc2)CC1=O (stereo not drawn)
163 to 164 °C	O=C1C(=O)N(CCCN2CCN(C(=O)N(c3ccccc3)c3ccccc3)CC2)c2ccccc21
147 °C	CNC(=O)Cc1ccccc1[N+](=O)[O-]
95 to 96 °C	CON=C(C)c1c(C)sc(C)c1CS(=O)(=O)C1=NOC(C)(C)C1
159 to 160 °C	[N-]=[N+]=NC1=CN(CC(F)(F)F)c2ccccc2C(c2ccccc2)=N1
190 to 193 °C	COc1c(Cl)ccc(-c2cc(N)c(Cl)c(C(=O)NOC(C)C)n2)c1F
251 to 254 °C	COc1cc(OCC(=O)O)c2c3c(n(Cc4ccccc4)c2c1)CCCC3C(N)=O (stereo not drawn)
218 to 220 °C	CN1CCN(Cc2ccc(NC(=O)c3cccc4cc(Oc5ccnc(NC(=O)C6CC6)c5)ccc34)cc2C(F)(F)F)CC1
66 to 67 °C	CCCc1cc2c(cc1CC#N)OCO2

melting point	Compound
> 290 °C	O=C(Nc1nc2cnccc2s1)Oc1ccccc1
> 250 °C	CN(C)CCn1cnc2cnc3ccccc3c21
218 to 220 °C	COC(=O)c1cccc2[nH]nc(S(=O)(=O)NC(C)(C)C)c12
102 to 110 °C	COc1cc(F)ccc1-c1ccc(S(=O)(=O)N2c3ccccc3CC2C(=O)NCCOc2ccc(CC(=O)O)cc2)cc1 (stereo not drawn)
228 to 229 °C	O=C(c1ccco1)c1cnn2c(-c3cccnc3)ccnc12
150 to 152 °C	CC#Cc1cc(N(C)C)nc(Nc2ccccc2)n1
110 to 112 °C	CCCCCCCCCCN=C=O
201 to 202 °C	COc1ccc(CN2CCC(c3cn(Cc4ccc(Cl)s4)c4cccnc34)CC2)cc1C(=O)O
198 to 199 °C	O=C(NNc1ccc(NC(=S)Nc2ccccc2)cc1)c1ccc(Cl)cc1
160 to 161 °C	CCc1nc(-c2ccc(Cl)cc2)c(CCC(=O)O)o1
255 to 258 °C	O=c1[nH]c2sccc2c2c([N+](=O)[O-])cccc12
139 to 140 °C	COc1cc2c(c3c1OC(C)(C)C3)C(c1ccnc(Cl)c1)=NC(C)(C)C2
60 to 63 °C	CCOC(=O)[C@H]1O[C@@H]1C(=O)N[C@@H](COCC(C)C)CC(C)C
199 to 200 °C	Nc1cc(C(=O)O)cc(S)c1Oc1ccccc1
145 to 146 °C	COc1ccc2c(CN3CCC[C@H]3C(=O)O)cc3cc4c(cc3c2c1)OCO4
186 °C	Cc1c(C(=O)Nc2ccc(N3CCC(N(C)CCO)CC3)c(C#N)c2)cnn1-c1ccc(Cl)cc1
124 °C	CCN(CC)CCNc1ccc(N2CCOC2=O)cc1[N+](=O)[O-]
159 to 160 °C	CCCCCS(=O)(=O)NC(=O)c1ccc2sc(C)c(Cc3ccc(Cl)c(Cl)c3)c2c1
163 to 164 °C	CSCc1cn(C)c2cc(Cl)ccc2c1=O
